Reference: patent US10760110B2, “Antibiotic testing and screening system” (priority 2017, dated 2020)

Columns and labels:
[1] = test system: A. baumannii KW1 strains with aminoglycoside resistance plasmids; test: Etest MIC of aminoglycosides, aminoglycoside-modifying enzyme or 16S rRNA methylase (Table 19); type: cell-based, Acinetobacter baumannii
Experimental: DNA fragments of the resistance genes along with their flanking regions were amplified from clinical plasmids via PCR with specific primer pairs. The resulting PCR fragments were digested and then cloned into the plasmid pYMAb5 or pYMAb5Tc. The resulting plasmids were then transformed into A. baumannii KW1 via electroporation.
(§1) The MICs of antibiotics were determined using the Etest (Biodisk AB, Sweden) according to the manufacturer's instructions. The MICs from the Etest, which fall between standard two-fold dilutions, were rounded up to the next highest two-fold value. The MICs of ceftazidime and cefotaxime against K. pneumoniae NVT1001 harbouring the pACYC177 plasmid with blaOXA-48 were further determined using a broth microdilution test according to the recommendations of the CLSI,^25 and the results were interpreted according to the breakpoints established by the CLSI in 2017.^25 Meanwhile, due to the lack of CLSI breakpoints in 2016 and 2017, the results for cephalothin were interpreted according to the breakpoints established by the CLSI in 2015,^26 and the results for moxifloxacin were interpreted according to the breakpoints established by the EUCAST in 2017.^27

[2] = test system: K. pneumoniae NVT1001 strains with aminoglycoside resistance plasmids; test: Etest MIC of aminoglycosides, aminoglycoside-modifying enzyme or 16S rRNA methylase (Table 13); type: cell-based, Klebsiella pneumoniae
Experimental: DNA fragments of the resistance genes along with their flanking regions were amplified from clinical plasmids via PCR with specific primer pairs. The resulting PCR fragments were digested and then cloned into the plasmid pACYC177 or pACYC184. The resulting plasmids were then transformed into K. pneumoniae strain NVT1001 via electroporation. The recombinant bacteria were plated onto LB agar plates containing kanamycin (50 mg/L) or chloramphenicol (50 mg/L), and the presence of the cloned gene was confirmed via PCR and DNA sequencing.
as §1

[3] = KW1 with AAC(3)-IIa on pYMAb5Tc
[4] = KW1 with ANT(2”)-Ia on pYMAb5Tc
[5] = KW1 with ANT(3”)-Ia on pYMAb5Tc
[6] = KW1 with APH(3')-Ia on pYMAb5Tc
[7] = KW1 with APH(3')-VIa on pYMAb5Tc
[8] = KW1 with shuttle vector pYMAb5Tc
[9] = NVT1001, no supplemental plasmid
[10] = NVT1001 with AAC(3)-IId on pACYC184
[11] = NVT1001 with AAC(3)-IVa on pACYC184
[12] = NVT1001 with AAC(6′)-Ib-cr on pACYC184
[13] = NVT1001 with ANT(2″)-Ia on pACYC184
[14] = NVT1001 with ANT(3″)-Ia on pACYC184
[15] = NVT1001 with APH(3′)-IIa on pACYC184
[16] = NVT1001 with APH(3′)-Ia on pACYC184
[17] = NVT1001 with StrA-StrB on pACYC184

Compound | MIC ([1]; KW1, no supplemental plasmid) | MIC [1, 3] | MIC [1, 4] | MIC [1, 5] | MIC [1, 6] | MIC [1, 7] | MIC ([1]; KW1 with ArmA on pYMAb5Tc) | MIC [1, 8] | MIC [2, 9] | MIC [2, 10] | MIC [2, 11] | MIC [2, 12] | MIC [2, 13] | MIC [2, 14] | MIC [2, 15] | MIC [2, 16] | MIC ([2]; NVT1001 with ArmA on pACYC184) | MIC ([2]; NVT1001 with RmtB on pACYC184) | MIC [2, 17]
NCC[C@H](O)C(=O)N[C@@H]1C[C@H](N)[C@@H](O[C@H]2O[C@H](CN)[C@@H](O)[C@H](O)[C@H]2O)[C@H](O)[C@H]1O[C@H]1O[C@H](CO)[C@@H](O)[C@H](N)[C@H]1O [AMK] | 2 µg/mL | 2 µg/mL | 2 µg/mL | 2 µg/mL | 2 µg/mL | 2 µg/mL | >256 µg/mL | 2 µg/mL | 2 µg/mL | 2 µg/mL | 2 µg/mL | 8 µg/mL | 2 µg/mL | 2 µg/mL | 2 µg/mL | 2 µg/mL | >256 µg/mL | >256 µg/mL | 2 µg/mL
NC[C@@H]1O[C@@H](O[C@H]2[C@H](O)[C@@H](O[C@H]3O[C@H](CO)[C@@H](O)[C@H](N)[C@H]3O)[C@H](N)C[C@@H]2N)[C@@H](O)[C@H](O)[C@H]1O [KAN] | 2 µg/mL | 2 µg/mL | 4 µg/mL | 2 µg/mL | 16 µg/mL | 16 µg/mL | >256 µg/mL | 2 µg/mL | 2 µg/mL | 4 µg/mL | 8 µg/mL | 32 µg/mL | >256 µg/mL | 2 µg/mL | >256 µg/mL | >256 µg/mL | >256 µg/mL | >256 µg/mL | 2 µg/mL
CCN[C@@H]1C[C@H](N)[C@@H](O[C@H]2OC(CN)=CC[C@H]2N)[C@H](O)[C@H]1O[C@H]1OC[C@](C)(O)[C@H](NC)[C@H]1O [NET] | 1.5 µg/mL | 1.5 µg/mL | 1.5 µg/mL | 1.5 µg/mL | 1.5 µg/mL | 1.5 µg/mL | >256 µg/mL | 1.5 µg/mL | 0.5 µg/mL | 4 µg/mL | 64 µg/mL | 8 µg/mL | 1 µg/mL | 0.5 µg/mL | 0.5 µg/mL | 0.5 µg/mL | >256 µg/mL | >256 µg/mL | 0.5 µg/mL
CN[C@@H]1[C@H](O)[C@H](NC)[C@H]2O[C@@]3(O)C(=O)C[C@@H](C)O[C@H]3O[C@@H]2[C@H]1O [SPT] | 24 µg/mL | 24 µg/mL | 24 µg/mL | 192 µg/mL | 24 µg/mL | 24 µg/mL | 24 µg/mL | 24 µg/mL | 16 µg/mL | 16 µg/mL | 16 µg/mL | 16 µg/mL | 16 µg/mL | >1024 µg/mL | 16 µg/mL | 16 µg/mL | 16 µg/mL | 16 µg/mL | 16 µg/mL
CN[C@@H]1[C@H](O[C@H]2[C@H](O[C@H]3[C@H](O)[C@@H](O)[C@H](N=C(N)N)[C@@H](O)[C@@H]3N=C(N)N)O[C@@H](C)[C@]2(O)C=O)O[C@@H](CO)[C@H](O)[C@H]1O [STR] | 12 µg/mL | 8 µg/mL | 8 µg/mL | 8 µg/mL | 12 µg/mL | 12 µg/mL | 8 µg/mL | 12 µg/mL | 2 µg/mL | 2 µg/mL | 2 µg/mL | 2 µg/mL | 2 µg/mL | 16 µg/mL | 2 µg/mL | 2 µg/mL | 2 µg/mL | 2 µg/mL | 1024 µg/mL
